Measured values reported in ChEMBL document CHEMBL1201862, “PubChem BioAssay data set” (2004).
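Interpolation was linear, between the two tested concentrations surrounding the appropriate level; five concentrations were tested over 48 hours in 96-well plates. GI50 marks 50% less growth.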 The source made the active and inactive calls. Cut-off read from the data, not from the text of the source: active = GI50 up to about 1.1 µM and inactive = higher. Starred links: 1 amine or outer side, 2 acyl side, 3 side chain; linkers in the order of their positions; H or OH if unused. Residues, ends and D or L forms follow the SMILES beside them. *: point of attachment. γGlu = O=C(O)[CH](CCC(=O)[*:2])N[*:1]; NHOH = ON*

Columns and labels:
Test in all cases: inhibition of tumour cell growth, NCI panel, 48 h
HT-29 = tested on: HT-29
OVCAR-3 = tested on: OVCAR-3
TK-10 = tested on: TK-10
RXF 393 = tested on: RXF 393
A498 = tested on: A498
MOLT-4 = tested on: MOLT-4
HCT-15 = tested on: HCT-15
IGROV-1 = tested on: IGROV-1
HCT-116 = tested on: HCT-116
SN12C = tested on: SN12C
U-251 = tested on: U-251
SR = tested on: SR
786-0 = tested on: 786-0
SF-539 = tested on: SF-539
BT-549 = tested on: BT-549
MDA-N = tested on: MDA-N
UO-31 = tested on: UO-31
OVCAR-5 = tested on: OVCAR-5
HOP-92 = tested on: HOP-92

Row | SMILES | GI50 (HT-29) | GI50 (OVCAR-3) | GI50 (TK-10) | GI50 (RXF 393) | GI50 (A498) | GI50 (MOLT-4) | GI50 (HCT-15) | GI50 (IGROV-1) | GI50 (HCT-116) | GI50 (SN12C) | GI50 (U-251) | GI50 (SR) | GI50 (786-0) | GI50 (SF-539) | GI50 (BT-549) | GI50 (MDA-N) | GI50 (UO-31) | GI50 (OVCAR-5) | GI50 (HOP-92)
1 | CCN(/C=C1/C(=O)C(c2ccccc2)N(c2ccccc2)C1=O)CC (stereo not drawn) | > 10 µM (inactive) | > 10 µM (inactive) | > 10 µM (inactive) | > 10 µM (inactive) | > 10 µM (inactive) | > 10 µM (inactive) | > 10 µM | > 10 µM (inactive) | > 10 µM (inactive) | > 10 µM (inactive) | > 10 µM (inactive) | > 10 µM (inactive) | > 10 µM (inactive) | > 10 µM (inactive) | > 10 µM (inactive) | > 10 µM (inactive) | > 10 µM (inactive) | > 10 µM (inactive) | 
2 | CCOC(=O)CNC(=O)C(CCC(=O)NO)NC(=O)CCC(N)C(=O)O (stereo not drawn) (γGlu-Glu(NHOH)-Gly-OEt; configuration not given here) | > 100 µM (inactive) | > 100 µM (inactive) | > 100 µM (inactive) | > 100 µM (inactive) | > 100 µM (inactive) | > 100 µM (inactive) | > 100 µM | > 100 µM (inactive) | > 100 µM (inactive) | > 100 µM (inactive) | > 100 µM (inactive) |  | > 100 µM (inactive) | > 100 µM (inactive) | > 100 µM (inactive) | > 100 µM (inactive) | > 100 µM (inactive) | > 100 µM (inactive) | > 100 µM (inactive)
3 | COc1ccc(-c2cc(-c3ccco3)c(C#N)c(=S)n2C2OC(COC(C)=O)C(OC(C)=O)C(OC(C)=O)C2OC(C)=O)cc1 (stereo not drawn) | 3.24 µM (inactive) | 7.13 µM (inactive) | 30.2 µM (inactive) | 9.53 µM (inactive) |  | 12.3 µM (inactive) | 31.6 µM | 13.3 µM (inactive) | 6.79 µM (inactive) | 10.1 µM (inactive) | 5.94 µM (inactive) | > 10 µM (inactive) | 3.28 µM (inactive) | 1.85 µM (inactive) | 2.82 µM (inactive) | 5.5 µM (inactive) | 13.7 µM (inactive) | 15.6 µM (inactive) | 4.02 µM (inactive)
4 | COc1ccc(C2=NN(C(=O)c3ccccc3)C(O)(c3cc(F)c(Cl)cc3Cl)C2)cc1OC (stereo not drawn) | 23.5 µM (inactive) | 20.4 µM (inactive) | 35.9 µM (inactive) | 18.9 µM (inactive) | 32.1 µM (inactive) | 8.61 µM (inactive) | > 100 µM | 40.1 µM (inactive) | 50 µM (inactive) | 94.4 µM (inactive) | 32.4 µM (inactive) |  | 30.3 µM (inactive) | 43.1 µM (inactive) | > 100 µM (inactive) | 57.5 µM (inactive) | 30.9 µM (inactive) | 71.3 µM (inactive) | 21.4 µM (inactive)
5 | COc1cc(C2C(Cl)C(=O)N2c2c(C)n(C)n(-c3ccccc3)c2=O)ccc1O (stereo not drawn) | 17.7 µM (inactive) | 28.2 µM (inactive) | 24.7 µM (inactive) | 18.1 µM (inactive) |  | 15.1 µM (inactive) |  | 14.1 µM (inactive) | 6.37 µM (inactive) | 19.1 µM (inactive) | 18 µM (inactive) | 12 µM (inactive) | 11.9 µM (inactive) | 16.3 µM (inactive) | 20.1 µM (inactive) | 15.6 µM (inactive) | 16.9 µM (inactive) | 21.5 µM (inactive) | 21.3 µM (inactive)
6 | COC(=O)[C@@H]1Cc2ccc(OC)c(c2)OCCC(=O)N1 | > 100 µM (inactive) | > 100 µM (inactive) | > 100 µM (inactive) | > 100 µM (inactive) |  | > 100 µM (inactive) | > 100 µM | 3.14 µM (inactive) | > 100 µM (inactive) |  | > 100 µM (inactive) | 32.6 µM (inactive) | > 100 µM (inactive) |  | > 100 µM (inactive) | > 100 µM (inactive) | > 100 µM (inactive) | > 100 µM (inactive) | 
7 | CCOC(=O)CC(=O)Nc1cccc2sc3ncccc3c(=O)c12 | 38.8 µM (inactive) | 34.4 µM (inactive) | 34.4 µM (inactive) | 3.09 µM (inactive) |  | 10 µM (inactive) | 38.4 µM | > 10 µM (inactive) | 46 µM (inactive) | 51.8 µM (inactive) | 32.6 µM (inactive) | 33.3 µM (inactive) | 35 µM (inactive) | 41.7 µM (inactive) | 43.4 µM (inactive) | 76.7 µM (inactive) | 25.7 µM (inactive) | 20.3 µM (inactive) | 
8 | COC(=O)[C@@H]1C[C@H]2[C@H](c3ccccc3Br)[C@@H](OC(C)=O)[C@@H](OCc3ccccc3)ON2O1 | > 100 µM (inactive) | 19.6 µM (inactive) | > 100 µM (inactive) | > 100 µM (inactive) |  | 45.3 µM (inactive) | > 100 µM | 21.9 µM (inactive) | > 100 µM (inactive) | > 100 µM (inactive) | > 100 µM (inactive) | > 100 µM (inactive) | > 100 µM (inactive) | > 100 µM (inactive) | > 100 µM (inactive) | > 100 µM (inactive) | > 100 µM (inactive) | > 100 µM (inactive) | 
